Patent US20260167641A1, “CRYSTAL FORM OF IMIDAZOPYRAZINE DERIVATIVE, PREPARATION METHOD THEREFOR AND USE THEREOF” (TRANSTHERA SCIENCES (NANJING), INC., priority 2022, published 2026)
Values after ≈ are worked out from the molar mass of the structure shown.

Tests used:
[1] = Stability evaluation under influencing factors; format: physicochemical; settings: for Purity decrease: 30 days vs day 0
Description: Appropriate amounts of crystal forms I, II. III, and the compound of formula (I) were taken and exposed to conditions of 60° C., RH (relative humidity) 92.5%, RH (relative humidity) 75%, and light, respectively. The samples were collected on day 30, and the purity of the samples and changes in XRPD were examined according to the 2020 edition of the Chinese Pharmacopoeia.

[2] = Solubility test in pH 4.5 acetate buffer solution; format: physicochemical; settings: for Solubility: saturated solution, 37° C., 200 rpm, 24 h
Description: Appropriate amounts of crystal forms I, II, III, and the compound of formula (I) were weighed and placed into 15 mL centrifuge tubes separately. A pH 4.5 acetate buffer was added to each tube to prepare saturated solutions. The tubes were sealed and placed in a water bath thermostatic oscillator to shake at 37° C. and a rotation speed of 200 rpm for 24 h. After centrifugation, the supernatants were collected and diluted to the corresponding multiples. The concentrations were measured. The detection was conducted according to the 2020 edition of the Chinese Pharmacopoeia.

[3] = Pharmacokinetic evaluation test in rats; format: in vivo, SD rats; settings: p.o. 100 mg/kg; for Pharmacokinetic properties: SD rats; for AUCinf—obs / AUClast / Cmax / tz1/2 (terminal half-life) / Tmax: male SD rats, 100 mg/kg; for AUCinf—obs / AUClast / Cmax / tz1/2 (terminal half-life): mean, n = 3; for Tmax: n = 3, Tmax in median
Description: • Animals: male SD rats • Animal administration and sample collection: Crystal forms I, II, and III were each dissolved in a mixture of 20% PEG400+80% (20% Captisol in 0.5% MC) to prepare administration formulation suspensions. The administration formulations were intragastrically administered to the SD rats at a dose of 100 mg/kg. Blood samples were collected at time points of 15 min, 30 min, 1 h, 2 h, 4 h, 6 h, 8 h, 24 h, 48 h, 72 h, and […] after administration.
One day before administration, the animals underwent jugular vein catheterization. After administration, about 300 μL of blood samples were collected via the jugular vein and then placed into anticoagulation tubes containing EDTA-K2. The blood samples were centrifuged at 4° C. and 8000 rpm for 10 min to yield plasma samples, which were prepared within 30 min after blood sample collection. The plasma samples were stored in a refrigerator at −80° C. before tests.
The samples to be tested were taken out from the refrigerator at −80° C., naturally thawed at room temperature, and then vortexed for 5 min. 20 μL of each of the 20-fold diluted plasma samples was precisely pipetted into a 1.5 mL centrifuge tube, and 300 μL of an internal standard working solution at a concentration of 10 ng/mL was added. The mixture was uniformly mixed, vortexed for 5 min, and then centrifuged at 12000 rpm for 5 mun.
50 μL of the supernatant was precisely pipetted into a 96-well plate to which water was added at 150 μL/well in advance, uniformly mixed by vortexing for 5 min, and analyzed by LC-MS/MS.
The sample to be tested was taken out from the refrigerator at −80° C., naturally thawed at room temperature, and then vortexed for 5 min. 2 μL of the plasma sample was precisely pipetted and then added, together with 28 μL of blank plasma, to a 1.5 mL centrifuge tube, and 450 μL of an internal standard working solution (a solution of tolbutamide in acetonitrile) at a concentration of 100 ng/mL was added. The mixture was uniformly mixed, vortexed for 5 min, and then centrifuged at 12000 rpm for 5 min. 50 μL of the supernatant was precisely pipetted into a 96-well plate to which water was added at 150 μL/well in advance, uniformly mixed by vortexing for 5 min, and analyzed by LC-MS/MS.
The test compound concentrations were output by Analyst 1.7.1 of AB Sciex. Parameters such as mean, standard deviation, and coefficient of variation were calculated by Microsoft Excel. PK parameters were calculated by Pharsight Phoenix 8.2 software NCA (Tmax was in median).

Structure (SMILES)	Purity % ([1]; 0 day) [%]	Crystal form identification (XRPD) ([1]; 60° C., 30 days)	Purity % ([1]; 60° C., 30 days) [%]	Crystal form identification (XRPD) ([1]; Light exposure, 30 days)	Purity % ([1]; Light exposure, 30 days) [%]	Crystal form identification (XRPD) ([1]; RH 75%, 30 days)	Purity % ([1]; RH 75%, 30 days) [%]	Crystal form identification (XRPD) ([1]; RH 92.5%, 30 days)	Purity % ([1]; RH 92.5%, 30 days) [%]	Purity decrease ([1]; light exposure) [%]	Solubility [2] [µg/mL]	Pharmacokinetic properties [3]	AUCinf—obs [3] [µg·h/mL]	AUClast [3] [µg·h/mL]	Cmax [3] [µg/mL]	tz1/2 (terminal half-life) [3] [h]	Tmax [3] [h]	Solubility compared to the amorphous form [2]	also measured
Nc1nccn2c(C34CCC(NC(=O)CN5CCOCC5)(CC3)C4)nc(-c3ccc(C(=O)Nc4cc(C(F)(F)F)ccn4)cc3)c12 [Compound of formula (I), 4-(8-amino-3-(4-(2-morpholinoacetamido)bicyclo[2.2.1]heptan-1-yl)imidazo[1,5-a]pyrazin-1-yl)-N-(4-(trifluoromethyl)pyridin-2-yl)benzamide]	99.7	Consistent with day 0	99.5	Consistent with day 0	88.2	Consistent with day 0	99.7	Consistent with day 0	99.7	11.5	65								
Nc1nccn2c(C34CCC(NC(=O)CN5CCOCC5)(CC3)C4)nc(-c3ccc(C(=O)Nc4cc(C(F)(F)F)ccn4)cc3)c12 (single isomer, unassigned) [Crystal form III, 4-(8-amino-3-(4-(2-morpholinoacetamido)bicyclo[2.2.1]heptan-1-yl)imidazo[1,5-a]pyrazin-1-yl)-N-(4-(trifluoromethyl)pyridin-2-yl)benzamide]	99.0	Consistent with day 0	94.8	Consistent with day 0	88.0	Partially converted to amorphous	98.7	Partially converted to amorphous	98.7	11	98 (≈ 154 µM)	very good pharmacokinetic properties	2488.128	2482.493	142.333	9.39	2.00	higher solubility	Purity decrease ([1]; high temperature of 60° C.): 4.2%
Nc1nccn2c(C34CCC(NC(=O)CN5CCOCC5)(CC3)C4)nc(-c3ccc(C(=O)Nc4cc(C(F)(F)F)ccn4)cc3)c12 (single isomer, unassigned) [Crystal form I, 4-(8-amino-3-(4-(2-morpholinoacetamido)bicyclo[2.2.1]heptan-1-yl)imidazo[1,5-a]pyrazin-1-yl)-N-(4-(trifluoromethyl)pyridin-2-yl)benzamide]	98.6	Consistent with day 0	98.7	Consistent with day 0	98.1	Consistent with day 0	98.7	Consistent with day 0	98.7	0.5	273 (≈ 430 µM)	very good pharmacokinetic properties	1218.508	1208.628	96.267	10.4	1.00	higher solubility	Change of crystal form (XRPD pattern) ([1]; all influencing factor conditions, 30 days): no changes in the crystal forms occurred; Stability compared to the amorphous form ([1]; influencing factors, 30 days): higher stability
